Here are results for 3 compounds from ChEMBL document CHEMBL3639191, “Benzimidazole derivatives: preparation and pharmaceutical applications” (2013).

Each structure is given as a SMILES string.

One assay addresses Histone deacetylase 1 (Homo sapiens, UniProt Q13547). As to the kind of experiment: (§1) Enzyme Assay: The assay have been carried out in a 96 well format and the BIOMOL using a fluorescent-based HDAC activity assay.
Another assay addresses T1, Histone deacetylase 8 (Homo sapiens, UniProt Q9BY41).
T1 sequence (Q9BY41 whole entry): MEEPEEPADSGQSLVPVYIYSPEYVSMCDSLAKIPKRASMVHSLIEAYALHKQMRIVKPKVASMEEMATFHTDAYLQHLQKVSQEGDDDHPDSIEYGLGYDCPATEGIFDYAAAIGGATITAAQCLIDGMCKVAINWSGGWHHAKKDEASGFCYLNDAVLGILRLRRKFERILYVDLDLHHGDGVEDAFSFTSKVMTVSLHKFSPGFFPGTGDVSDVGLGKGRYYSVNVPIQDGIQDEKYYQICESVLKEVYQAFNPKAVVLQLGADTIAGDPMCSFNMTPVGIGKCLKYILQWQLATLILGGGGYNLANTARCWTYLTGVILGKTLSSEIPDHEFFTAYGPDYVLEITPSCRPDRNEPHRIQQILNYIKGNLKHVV
The description is as §1.

Histone deacetylase 1, sequence (Q13547 whole entry): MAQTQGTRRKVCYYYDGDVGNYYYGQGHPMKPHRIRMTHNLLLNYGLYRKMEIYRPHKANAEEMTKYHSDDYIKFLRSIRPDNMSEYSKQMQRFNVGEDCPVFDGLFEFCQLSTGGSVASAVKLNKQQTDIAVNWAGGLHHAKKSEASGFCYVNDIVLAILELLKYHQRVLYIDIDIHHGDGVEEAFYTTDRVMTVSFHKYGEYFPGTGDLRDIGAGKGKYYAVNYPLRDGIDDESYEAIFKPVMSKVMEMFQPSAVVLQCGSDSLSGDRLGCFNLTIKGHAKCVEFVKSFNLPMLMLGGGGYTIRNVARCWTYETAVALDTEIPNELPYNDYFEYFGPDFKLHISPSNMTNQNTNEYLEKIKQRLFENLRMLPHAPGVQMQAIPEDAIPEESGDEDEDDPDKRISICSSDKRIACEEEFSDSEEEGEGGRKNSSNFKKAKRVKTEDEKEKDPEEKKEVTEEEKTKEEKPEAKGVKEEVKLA

In general, IC50 refers to the midpoint of a concentration-inhibition curve. A high value points to weaker potency. For the compound `COc1ccc(-c2nc3cc(/C=C/C(=O)NO)ccc3n2CC(O)CO)cc1` (stereo unspecified), the IC50 at Histone deacetylase 1 was 1.38 µM; at Histone deacetylase 8, 0.262 µM.
For `COc1cc(-c2nc3cc(/C=C/C(=O)NO)ccc3n2C)ccc1OCc1ccccc1`, the IC50 against Histone deacetylase 1 came to 1.37 µM; against Histone deacetylase 8, 1.71 µM.
With `O=C(/C=C/c1ccc2c(c1)nc(C1CCCCC1)n2CCCO)NO`, the IC50 against Histone deacetylase 1 stood at 3.24 µM; on Histone deacetylase 8, 0.203 µM.
